Source: patent US20220313629A1, “TRANSIENT POTENTIAL MELASTATIN 8 (TRPM8) ANTAGONISTS AND RELATED METHODS” (MARSHALL UNIVERSITY RESEARCH CORPORATION, priority 2019, published 2022)
“And” between values parts separate entries of the source, which are not always exact repeats. Equal entries are not always repeated. Where two headings read alike, the source gives them in different places.

What was measured:
TRPM8 [1] = biological target: T1, TRPM8 (Homo sapiens, UniProt Q7Z2W7); details: literature value; read-out: IC50 in whole-cell patch-clamp assay (reported); cited from earlier work
Target sequence in this assay (Q7Z2W7 whole entry): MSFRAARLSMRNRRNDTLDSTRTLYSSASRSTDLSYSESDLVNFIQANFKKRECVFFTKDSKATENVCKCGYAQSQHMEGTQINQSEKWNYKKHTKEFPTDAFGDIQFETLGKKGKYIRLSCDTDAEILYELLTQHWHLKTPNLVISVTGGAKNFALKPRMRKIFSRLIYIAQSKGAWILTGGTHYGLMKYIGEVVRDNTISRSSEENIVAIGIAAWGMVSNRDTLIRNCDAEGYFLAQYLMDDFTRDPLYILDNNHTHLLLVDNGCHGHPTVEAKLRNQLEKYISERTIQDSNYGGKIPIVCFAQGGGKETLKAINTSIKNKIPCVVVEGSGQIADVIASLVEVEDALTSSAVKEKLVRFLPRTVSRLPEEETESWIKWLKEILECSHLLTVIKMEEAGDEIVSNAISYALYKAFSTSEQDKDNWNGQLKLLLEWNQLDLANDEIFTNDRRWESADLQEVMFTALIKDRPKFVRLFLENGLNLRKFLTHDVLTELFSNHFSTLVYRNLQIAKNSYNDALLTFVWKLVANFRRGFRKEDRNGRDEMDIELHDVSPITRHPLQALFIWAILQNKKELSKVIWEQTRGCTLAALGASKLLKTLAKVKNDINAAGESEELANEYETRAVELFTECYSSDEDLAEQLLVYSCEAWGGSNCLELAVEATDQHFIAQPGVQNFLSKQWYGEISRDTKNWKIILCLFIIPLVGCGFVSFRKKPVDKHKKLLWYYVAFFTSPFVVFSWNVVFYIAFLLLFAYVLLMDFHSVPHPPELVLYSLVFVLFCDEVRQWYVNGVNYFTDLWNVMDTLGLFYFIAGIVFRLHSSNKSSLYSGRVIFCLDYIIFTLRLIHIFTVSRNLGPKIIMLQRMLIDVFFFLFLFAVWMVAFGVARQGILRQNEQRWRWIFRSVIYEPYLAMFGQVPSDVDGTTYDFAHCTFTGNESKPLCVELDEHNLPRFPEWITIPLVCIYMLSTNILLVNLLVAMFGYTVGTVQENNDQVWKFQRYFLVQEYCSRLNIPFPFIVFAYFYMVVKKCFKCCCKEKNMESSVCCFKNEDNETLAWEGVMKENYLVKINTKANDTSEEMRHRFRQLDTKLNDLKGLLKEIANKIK

rat and human TRPM8 = details: literature; read-out: IC50 values against menthol, icilin and cold activation at rat and human TRPM8; cited from earlier work
human TRPA1 [2] = biological target: T2, human TRPA1 (Homo sapiens, UniProt O75762); assay: TRPA1 agonist and antagonist Ca2+ flux assay (FLIPR, Fluo-8) in HEK293 cells stably expressing human TRPA1; assay type: cell-based; details: for % Activation Mean ± SEM (n = 5), TRPA1 antagonist data (Percentage Inhibition Normalized to EC80 Control): vs EC80 of AITC
human TRPA1 [3] = biological target: T2, human TRPA1; details: vs. the effect of 80 μM AITC; read-out: IC50 at TRPA1 reported by Klionsky and colleagues; cited from earlier work
TRPM8 [4] = biological target: T1, TRPM8; details: cited from earlier work
Target sequence in this assay (Q7Z2W7 whole entry): as above

[5] = Stability in liver microsomes; assay type: in vitro ADME; details: mouse liver microsomes; CLint = k/P
Description: Stability in liver microsomes. Male CD-1 mouse liver microsomes (Lot#1710069) were purchased from XenoTech. The reaction mixture, minus NADPH, was prepared as described below. Compound 14 was added into the reaction mixture at a final concentration of 1 μM. The control compound, testosterone, was run simultaneously with Compound 14 in a separate reaction. An aliquot of the reaction mixture (without cofactor) was equilibrated in a shaking water bath at 37° C. for 3 minutes. The reaction was initiated by the addition of the cofactor, and the mixture was incubated in a shaking water bath at 37° C. Aliquots (100 μL) were withdrawn at 0, 10, 20, 30, and 60 minutes. Compound 14 and testosterone samples were immediately combined with 400 μL of ice-cold 50/50 acetonitrile (ACN)/H2O containing 0.1% formic acid and internal standard to terminate the reaction. The samples were then mixed and centrifuged to precipitate proteins. All samples were assayed by LC-MS/MS using electrospray ionization. […] are compared to the PARR at time 0 to determine the percent remaining at each time point. Half-lives and intrinsic clearance were calculated using GraphPad software, fitting to a single-phase exponential decay equation.
In vitro metabolic stability. Compound 14 was evaluated for metabolic stability in mouse liver microsomes by Absorption Systems (Exton, Pa.), by determining the percent remaining at 0, 10, 20, 30 and 60 minutes when incubated with mouse liver microsomes in the presence of NADPH. The half-life (t1/2) and in vitro intrinsic clearance (CLint) of Compound 14 was calculated, in addition to the control (testosterone).

TRPM8 [6] = biological target: T1, TRPM8; details: different cell type (CHO vs HEK) or species (human versus mouse); read-out: previously-reported EC50 values; cited from earlier work
Target sequence in this assay (Q7Z2W7 whole entry, species assumed): as the sequence (Q7Z2W7 whole entry) above

TRPM8 [7] = biological target: T1, TRPM8; assay: TRPM8 agonist (intrinsic) activity by Fura-2 Ca2+ imaging in HEK-293 cells stably expressing human TRPM8; assay type: cell-based; details: HEK-293 cells stably expressing hTRPM8; read-out: EC50 (agonist-evoked Ca2+ influx at hTRPM8)
Target sequence in this assay (Q7Z2W7 whole entry): as above

TRPM8 [8] = biological target: T1, TRPM8; assay: TRPM8 antagonist activity by Fura-2 Ca2+ imaging in HEK-293 cells stably expressing human TRPM8; assay type: cell-based; details: inhibition of icilin (500 nM)-evoked Ca2+ entry; HEK-293 cells stably expressing hTRPM8; mean ± SEM, three independent experiments; read-out: Functional Activity hTRPM8 potency IC50 ± SEM
Target sequence in this assay (Q7Z2W7 whole entry): as above

T2 sequence (O75762 whole entry): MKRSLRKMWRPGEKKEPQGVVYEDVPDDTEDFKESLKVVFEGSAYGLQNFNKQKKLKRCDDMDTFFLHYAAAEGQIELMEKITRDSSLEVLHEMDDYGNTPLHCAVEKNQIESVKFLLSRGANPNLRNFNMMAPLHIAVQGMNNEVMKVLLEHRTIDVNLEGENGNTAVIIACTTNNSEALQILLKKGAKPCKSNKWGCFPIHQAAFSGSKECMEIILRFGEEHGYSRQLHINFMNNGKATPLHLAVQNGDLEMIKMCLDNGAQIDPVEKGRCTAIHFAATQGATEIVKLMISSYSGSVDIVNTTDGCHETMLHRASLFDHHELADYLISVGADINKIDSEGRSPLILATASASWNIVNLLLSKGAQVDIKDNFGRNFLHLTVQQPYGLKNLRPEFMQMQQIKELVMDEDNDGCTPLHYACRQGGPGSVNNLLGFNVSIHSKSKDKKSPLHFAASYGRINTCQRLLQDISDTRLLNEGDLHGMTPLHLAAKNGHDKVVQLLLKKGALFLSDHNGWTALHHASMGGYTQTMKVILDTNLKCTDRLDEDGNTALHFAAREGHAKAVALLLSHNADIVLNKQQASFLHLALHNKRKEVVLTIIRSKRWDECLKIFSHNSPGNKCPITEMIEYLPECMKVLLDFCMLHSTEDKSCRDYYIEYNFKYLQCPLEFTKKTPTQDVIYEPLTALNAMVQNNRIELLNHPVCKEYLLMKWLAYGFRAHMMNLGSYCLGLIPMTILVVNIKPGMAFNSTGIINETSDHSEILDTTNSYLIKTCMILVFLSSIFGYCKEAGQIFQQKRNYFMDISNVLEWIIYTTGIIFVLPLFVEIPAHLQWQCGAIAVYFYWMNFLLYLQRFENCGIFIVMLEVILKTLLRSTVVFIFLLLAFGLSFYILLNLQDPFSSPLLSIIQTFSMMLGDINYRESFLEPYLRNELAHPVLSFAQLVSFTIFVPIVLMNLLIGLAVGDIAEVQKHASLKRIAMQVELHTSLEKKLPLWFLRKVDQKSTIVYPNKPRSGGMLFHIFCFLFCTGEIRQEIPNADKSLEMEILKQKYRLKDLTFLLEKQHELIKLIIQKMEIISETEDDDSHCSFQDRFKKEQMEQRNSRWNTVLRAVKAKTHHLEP

Structure (SMILES): COc1cc(CN(CCN)C(=O)OC(C)c2ccccc2)ccc1OCc1ccccc1 (stereo not drawn) [PBMC]
- IC50 (TRPM8 [1]): 0.4 to 0.6 nM

Structure (SMILES): C[C@H](NC(=O)N1CCc2cccnc2[C@H]1c1ccc(C(F)(F)F)cc1)C(F)(F)F [AMG2850]
- IC50 (rat and human TRPM8): 7 to 156 nM

Structure (SMILES): N.N.N.N.N.N.N.N.N.N.N.N.N.N.[Cl-].[Cl-].[Cl-].[Cl-].[Cl-].[Cl-].[O-2].[O-2].[Ru+3].[Ru+3].[Ru+4] [Ruthenium Red, reference compound]
- % Activation Mean ± SEM (n = 5), TRPA1 antagonist data (Percentage Inhibition Normalized to EC80 Control) (human TRPA1 [2]; 3 nM): −6.0 ± 1.2%
- % Activation Mean ± SEM (n = 5), TRPA1 antagonist data (Percentage Inhibition Normalized to EC80 Control) (human TRPA1 [2]; 10 nM): 1.9 ± 2.4%
- % Activation Mean ± SEM (n = 5), TRPA1 antagonist data (Percentage Inhibition Normalized to EC80 Control) (human TRPA1 [2]; 30 nM): 5.8 ± 4.6%
- % Activation Mean ± SEM (n = 5), TRPA1 antagonist data (Percentage Inhibition Normalized to EC80 Control) (human TRPA1 [2]; 100 nM): 15.7 ± 9.8%
- % Activation Mean ± SEM (n = 5), TRPA1 antagonist data (Percentage Inhibition Normalized to EC80 Control) (human TRPA1 [2]; 300 nM): 91.1 ± 2.9%
- % Activation Mean ± SEM (n = 5), TRPA1 antagonist data (Percentage Inhibition Normalized to EC80 Control) (human TRPA1 [2]; 1,000 nM): 100.9 ± 0.1%
- % Activation Mean ± SEM (n = 5), TRPA1 antagonist data (Percentage Inhibition Normalized to EC80 Control) (human TRPA1 [2]; 3,000 nM): 100.9 ± 0.7%
- % Activation Mean ± SEM (n = 5), TRPA1 antagonist data (Percentage Inhibition Normalized to EC80 Control) (human TRPA1 [2]; 10,000 nM): 100.8 ± 0.3%
- IC50 (human TRPA1 [2]; AITC 10 μM, read-out: IC50, blockade of AITC-activated hTRPA1 responses): 162 ± 33 nM
- IC50 (human TRPA1 [3]): 29 ± 6 nM

Structure (SMILES): C[C@H](c1ccc(F)cc1)N(Cc1cccc(C(=O)O)c1)C(=O)c1cnc2ccccc2c1 [PF-05105679]
- IC50 (TRPM8 [4]; literature, read-out: IC50, inhibition of WS-12-mediated activation at human TRPM8): 181 ± 7.21 nM
- IC50 (TRPM8 [4]; literature, read-out: IC50, inhibition of voltage-mediated activation at human TRPM8): 103 ± 29.4 nM
- IC50 (TRPM8 [4]; literature, read-out: hTRPM8 IC50 (reported Ca2+ flux activity)): 181 nM

Structure (SMILES): C[C@]12CC[C@H]3[C@@H](CCC4=CC(=O)CC[C@@]43C)[C@@H]1CC[C@@H]2O [Testosterone, reference compound]
- CLint (mL/min/mg protein) [5]: 0.372 mL/min/mg protein

Structure (SMILES): O=C1NC(c2cccc([N+](=O)[O-])c2)=CCN1c1ccccc1O [icilin, 3-(2-hydroxyphenyl)-6-(3-nitrophenyl)-3,4-dihydropyrimidin-2(1H)-one]
- EC50 (TRPM8 [6]): 120 to 200 nM
- EC50 (TRPM8 [7]): ~70 nM and 74 nM

Structure (SMILES): O=C(O)c1ccc(S(=O)(=O)N(Cc2ccc(OC(F)(F)F)cc2)c2ncc(C(F)(F)F)cc2Cl)cc1 [RQ-00203078, reference compound]
- IC50 (TRPM8 [4]; HEK cells expressing hTRPM8, read-out: IC50 previously reported against 30 μM menthol-evoked Ca2+ influx): ~8 nM
- reported potency at hTRPM8 (TRPM8 [4]; literature): < 10 nM
- IC50 (TRPM8 [8]): 2.96 nM and 3 nM
